Blank lines part the entries; values can stand above or below the compound they belong to.
Columns and labels:
[1] = Solubility in solvents (2,5-dimethylisosorbide, water, polyols); details: temperature range 55° C. to 70° C.
[2] = Stability of vitamin C (model substance for mRNA) in the carrier system; assay type: physicochemical; details: more than 15 wt. % vitamin C, with panthenol, composition of Table 16
[3] = single substance, value given in the literature; cited from earlier work

SMILES: CC[C@H](/C=C/[C@@H](C)[C@H]1CC[C@H]2[C@@H]3CC=C4C[C@@H](O)CC[C@]4(C)[C@H]3CC[C@]12C)C(C)C [stigmasterol]
concentration completely dissolved in 2,5-dimethylisosorbide [1]: over 50%

solubility in 2,5-dimethylisosorbide [1]: dissolved in high concentrations
SMILES: CC(C)CCC[C@@H](C)[C@H]1CC[C@H]2[C@@H]3CC=C4C[C@@H](O)CC[C@]4(C)[C@H]3CC[C@]12C [cholesterol]

stability in the composition or carrier system [2]: high stability
SMILES: O=C1O[C@H]([C@@H](O)CO)C(O)=C1O [vitamin C, ascorbic acid]

SMILES: CCCCCCCCCCCCCCCCCC(=O)OC[C@H](COP(=O)([O-])OCC[N+](C)(C)C)OC(=O)CCCCCCCCCCCCCCCCC [DSPC, 1,2-distearoyl-sn-glycero-3-phosphocholine]
HLB [3]: 4.5
